The target of test [1] is recombinant human Mcl-1 (residues 171-327) / Bim interaction (Homo sapiens (Human), UniProt Q07820). Kind of test: biochemical. The format is binding. The conditions noted are these: read-out: Mcl-1 HTRF IC50.
In test [2] the test system is human multiple myeloma cell line, OPM-2. The test is described as follows: Cell viability assay (OPM-2 10 FBS), CellTiter-Glo. The test is classed as cell-based. The method in brief:
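Steps: plate cells at 3000/well in 10% FBS growth medium, add serially diluted compound, incubate 16 h at 37 °C with 5% CO2, add detection reagent and read luminescence after 25 min. A 4-parameter logistic model gives IC50.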
(In general: ATP-based viability assays read luminescence as a measure of living cells.)

Where [3] appears, read: TR-FRET, Mcl-1(171-327) / biotin-Bim (51-76).
Setting [4] is: Homo sapiens, OPM-2, 16 h, read-out: OPM-2 10% FBS IC50 IP, OPM-2 cells, 10% FBS, 16 h, CellTiter-Glo.
Setting [5] is: read-out: OPM-2 10% FBS IC50 IP, OPM-2 cells, 10% FBS, 16 h, CellTiter-Glo.
Setting [6] is: 0.1 nM Mcl-1(171-327), 0.05 nM biotin-Bim (51-76).
Where [7] appears, read: read-out: OPM-2 10% FBS IC50 IP, OPM-2 cells, 10% FBS, 16 h incubation.

Where two headings read alike, the source gives them in different places.

Chain of recombinant human Mcl-1 (residues 171-327) / Bim interaction (Q07820 171-327): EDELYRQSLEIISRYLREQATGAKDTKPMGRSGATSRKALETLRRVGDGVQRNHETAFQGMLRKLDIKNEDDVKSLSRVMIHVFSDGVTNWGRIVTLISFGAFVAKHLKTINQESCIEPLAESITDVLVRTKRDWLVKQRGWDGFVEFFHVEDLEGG

Regarding `COCCOC[C@]1(O)CCC[C@H](C)[C@@H](C)S(=O)(=O)NC(=O)c2ccc3c(c2)N(C[C@@H]2CC[C@H]21)C[C@@]1(CCCc2cc(Cl)ccc21)CO3` [Example 100192, (1S,3′R,6′R,7′S,11′S,12′R)-6-chloro-7′-hydroxy-7′-((2-methoxyethoxy)methyl)-11′,12′-dimethyl-3,4-dihydro-2H,15′H-spiro[naphthalene-1,22′-[20]oxa[13]thia[1,14]diazatetracyclo [14.7.2.0~3,6~.0~19,24~]pentacosa[16,18,24]trien]-15′-one 13′,13′-dioxide], the IC50 in test [1] (setting [3]) is 0.192 nM; in test [2] (setting [4]) it was 149 nM.

As for `C=CC[C@@]1(O)/C=C/C[C@H](C)[C@@H](C)S(=O)(=O)NC(=O)c2ccc3c(c2)N(C[C@@H]2CC[C@H]21)C[C@@]1(CCCc2cc(Cl)ccc21)CO3` (stereo in doubt) [Example 100127], the results for the IC50 in test [1] (setting [3]) and in test [2] (setting [5]) were 0.175 nM and 108 nM, respectively.

Turning to `CO[C@]1(C)/C=C/C[C@H](C)[C@@H](C)S(=O)(=O)NC(=O)c2ccc3c(c2)N(C[C@@H]2CC[C@H]21)C[C@@]1(CCCc2cc(Cl)ccc21)CO3` [Example 100215, (1S,3′R,6′R,7′R,8′E,11′S,12′R)-6-chloro-7′-methoxy-7′,11′,12′-trimethyl-3,4-dihydro-2H,15′H-spiro[naphthalene-1,22′-[20]oxa[13]thia[1,14]diazatetracyclo [14.7.2.0~3,6~.0~19,24~]pentacosa[8,16,18,24]tetraen]-15′-one 13′,13′-dioxide], the IC50 in test [1] stood at 0.595 nM; in test [2] (setting [4]), 1250 nM.

Consider `C[C@@H]1[C@@H](C)C/C=C/[C@@](O)(CC(=O)OCC2(C)COC2)[C@@H]2CC[C@H]2CN2C[C@@]3(CCCc4cc(Cl)ccc43)COc3ccc(cc32)C(=O)NS1(=O)=O` [Example 100299, (3-methyl-3-oxetanyl)methyl ((1S,3′R,6′R,7′S,8′E,11′S,12′R)-6-chloro-7′-hydroxy-11′,12′-dimethyl-13′,13′-dioxido-15′-oxo-3,4-dihydro-2H-spiro[naphthalene-1,22′-[20]oxa[13]thia[1,14]diazatetracyclo [14.7.2.0~3,6~.0~19,24~]pentacosa[8,16,18,24]tetraen]-7′-yl)acetate], for which the IC50 in test [1] (setting [3]) was 0.35 nM; in test [2] (setting [4]), 623 nM.

As to `CCC[C@@]1(O)/C=C/C[C@H](C)[C@@H](C)S(=O)(=O)NC(=O)c2ccc3c(c2)N(C[C@@H]2CC[C@H]21)C[C@@]1(CCCc2cc(Cl)ccc21)CO3` [Example 100209, (1S,3′R,6′R,7′R,8′E,11′S,12′R)-6-chloro-7′-hydroxy-11′,12′-dimethyl-7′-propyl-3,4-dihydro-2H,15′H-spiro[naphthalene-1,22′-[20]oxa[13]thia[1,14]diazatetracyclo [14.7.2.0~3,6~.0~19,24~]pentacosa[8,16,18,24]tetraen]-15′-one 13′,13′-dioxide], the IC50 is 2.67 nM in test [1] and 3380 nM in test [2] (setting [4]).

Consider `C[C@@H]1[C@@H](C)CCC[C@](O)(c2ncccn2)[C@@H]2CC[C@H]2CN2C[C@@]3(CCCc4cc(Cl)ccc43)COc3ccc(cc32)C(=O)NS1(=O)=O` [Example 100279, (1S,3′R,6′R,7′R,11′S,12′R)-6-chloro-7′-hydroxy-11′,12′-dimethyl-7′-(2-pyrimidinyl)-3,4-dihydro-2H,15′H-spiro[naphthalene-1,22′-[20]oxa[13]thia[1,14]diazatetracyclo [14.7.2.0~3,6~.0~19,24~]pentacosa[16,18,24]trien]-15′-one 13′,13′-dioxide], for which the IC50 in test [1] was determined as 0.777 nM; in test [2] (setting [5]), 3250 nM.

For the molecule `CO[C@@]1(CN2CCN3CCN(C(=O)CCS(=O)(=O)c4ccccc4)C[C@@H]3C2)/C=C/C[C@H](C)[C@@H](C)S(=O)(=O)NC(=O)c2ccc3c(c2)N(C[C@@H]2CC[C@H]21)C[C@@]1(CCCc2cc(Cl)ccc21)CO3` (single isomer, unassigned) [Example 294], the IC50 in test [1] (setting [6]) amounted to 0.66 nM; in test [2] (setting [7]), 687 nM.

As for `CO[C@]1(c2nccn2C)/C=C/C[C@H](C)[C@@H](C)S(=O)(=O)NC(=O)c2ccc3c(c2)N(C[C@@H]2CC[C@H]21)C[C@@]1(CCCc2cc(Cl)ccc21)CO3` (single isomer, unassigned) [Example 100553], the results for the IC50 in test [1] (setting [3]) and in test [2] (setting [4]) were 1.04 nM and 2790 nM, respectively.

Take “(1S,3′R,6′R,7′R,8′E,11′S,12′R)-6-chloro-12′-(2-(dimethylamino)ethyl)-7′-methoxy-11′-methyl-7′-((9aR)-octahydro-2H-pyrido[1,2-a]pyrazin-2-ylmethyl)-3,4-dihydro-2H,15′H-spiro[naphthalene-1,22′-[20]oxa[13]thia[1,14]diazatetracyclo[14.7.2.0-3,6˜.0˜19,24˜]pentacosa[8,16,18,24]tetraen]-15′-one 13′,13′-dioxide [Example 367]”: the IC50 in test [1] (setting [6]) came to 0.201 nM; in test [2] (setting [7]), 273 nM.

`C[C@@H]1[C@@H](C)C/C=C/[C@](O)(C2CC2)[C@@H]2CC[C@H]2CN2C[C@@]3(CCCc4cc(Cl)ccc43)COc3ccc(cc32)C(=O)NS1(=O)=O` [Example 100213, (1S,3′R,6′R,7′R,8′E,11′S,12′R)-6-chloro-7′-cyclopropyl-7′-hydroxy-11′,12′-dimethyl-3,4-dihydro-2H,15′H-spiro[naphthalene-1,22′-[20]oxa[13]thia[1,14]diazatetracyclo [14.7.2.0~3,6~.0~19,24~]pentacosa[8,16,18,24]tetraen]-15′-one 13′,13′-dioxide]: the values for the IC50 in test [1] (setting [3]) and in test [2] (setting [4]) were 2.84 nM and 2020 nM, respectively.

In the case of `CO[C@]1(CN2CCN(CCF)CC2)/C=C/C[C@H](C)[C@@H](C)S(=O)(=O)NC(=O)c2ccc3c(c2)N(C[C@@H]2CC[C@H]21)C[C@@]1(CCCc2cc(Cl)ccc21)CO3` [Example 96, (1S,3′R,6′R,7′R,8′E,11′S,12′R)-6-chloro-7′-((4-(2-fluoroethyl)-1-piperazinyl)methyl)-7′-methoxy-11′,12′-dimethyl-3,4-dihydro-2H,15′H-spiro[naphthalene-1,22′-[20]oxa[13]thia[1,14]diazatetracyclo [14.7.2.0~3,6~.0~19,24~]pentacosa[8,16,18,24]tetraen]-15′-one 13′,13′-dioxide], the IC50 in test [1] (setting [6]) is 0.114 nM; in test [2] (Homo sapiens, OPM-2, 16 h, read-out: OPM-2 10% FBS IC50 IP, OPM-2 cells, 10% FBS, 16 h incubation) it was 111 nM.

In the case of `C[C@@H]1[C@@H](C)CCC[C@@](O)(Cc2nccs2)[C@@H]2CC[C@H]2CN2C[C@@]3(CCCc4cc(Cl)ccc43)COc3ccc(cc32)C(=O)NS1(=O)=O` (single isomer, unassigned) [Example 100251], the IC50 was 3.29 nM in test [1] (setting [3]) and 3730 nM in test [2] (setting [5]).

Regarding `COCCN1CCN(CCO[C@@]2(C)/C=C/C[C@H](C)[C@@H](C)S(=O)(=O)NC(=O)c3ccc4c(c3)N(C[C@@H]3CC[C@H]32)C[C@@]2(CCCc3cc(Cl)ccc32)CO4)CC1` [Example 100485, (1S,3′R,6′R,7′S,8′E,11′S,12′R)-6-chloro-7′-(2-(4-(2-methoxyethyl)-1-piperazinyl)ethoxy)-7′,11′,12′-trimethyl-3,4-dihydro-2H,15′H-spiro[naphthalene-1,22′-[20]oxa[13]thia[1,14]diazatetracyclo [14.7.2.0~3,6~.0~19,24~]pentacosa[8,16,18,24]tetraen]-15′-one 13′,13′-dioxide], the figures for the IC50 in test [1] (setting [3]) and in test [2] (setting [4]) were 0.192 nM and 272 nM, respectively.

`CO[C@]1(C#CCCO)/C=C/C[C@H](C)[C@@H](C)S(=O)(=O)NC(=O)c2ccc3c(c2)N(C[C@@H]2CC[C@H]21)C[C@@]1(CCCc2cc(Cl)ccc21)CO3` [Example 100426, (1S,3′R,6′R,7′R,8′E,11′S,12′R)-6-chloro-7′-(4-hydroxy-1-butyn-1-yl)-7′-methoxy-11′,12′-dimethyl-3,4-dihydro-2H,15′H-spiro[naphthalene-1,22′-[20]oxa[13]thia[1,14]diazatetracyclo [14.7.2.0~3,6~.0~19,24~]pentacosa[8,16,18,24]tetraen]-15′-one 13′,13′-dioxide]: the results for the IC50 in test [1] (setting [3]) and in test [2] (setting [4]) were 0.197 nM and 110 nM, respectively.

As for `CO[C@@]1(c2cnccc2F)/C=C/C[C@H](C)[C@@H](C)S(=O)(=O)NC(=O)c2ccc3c(c2)N(C[C@@H]2CC[C@H]21)C[C@@]1(CCCc2cc(Cl)ccc21)CO3` (single isomer, unassigned) [Example 100538], the results for the IC50 in test [1] (setting [3]) and in test [2] (setting [4]) were 1.47 nM and 2400 nM, respectively.

`COCCN(C)C(=O)C[C@]1(O)CCC[C@H](C)[C@@H](C)S(=O)(=O)NC(=O)c2ccc3c(c2)N(C[C@@H]2CC[C@H]21)C[C@@]1(CCCc2cc(Cl)ccc21)CO3` [Example 100140, 2-((1S,3′R,6′R,7′R,11′S,12′R)-6-chloro-7′-hydroxy-11′,12′-dimethyl-13′,13′-dioxido-15′-oxo-3,4-dihydro-2H-spiro[naphthalene-1,22′-[20]oxa[13]thia[1,14]diazatetracyclo [14.7.2.0~3,6~.0~19,24~]pentacosa[16,18,24]trien]-7′-yl)-N-(2-methoxyethyl)-N-methylacetamide]: the half-maximal inhibitory concentration (IC50) in test [1] (setting [3]) was determined as 0.486 nM; in test [2] (setting [5]), 299 nM.

For `C[C@@H]1[C@@H](C)C/C=C/[C@](C)(OCCN2CC(F)(F)C2)[C@@H]2CC[C@H]2CN2C[C@@]3(CCCc4cc(Cl)ccc43)COc3ccc(cc32)C(=O)NS1(=O)=O` [Example 100484, (1S,3′R,6′R,7′S,8′E,11′S,12′R)-6-chloro-7′-(2-(3,3-difluoro-1-azetidinyl)ethoxy)-7′,11′,12′-trimethyl-3,4-dihydro-2H,15′H-spiro[naphthalene-1,22′-[20]oxa[13]thia[1,14]diazatetracyclo [14.7.2.0~3,6~.0~19,24~]pentacosa[8,16,18,24]tetraen]-15′-one 13′,13′-dioxide], the IC50 in test [1] (setting [3]) is 3.85 nM; in test [2] (setting [4]), 3370 nM.

The IC50 is the concentration that gives 50% inhibition.

For the origin of these results see patent US10821115B2, “Compounds that inhibit Mcl-1 protein” (priority 2017, dated 2020).
